Measured values from the supplement of paper PMC9013687.

Tested on: Danio rerio embryo
Assay: spontaneous tail coiling frequency (coils/min/embryo); higher = more spontaneous movement
Conditions: 25 hpf
Protocol: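 Spontaneous tail coilings of zebrafish embryos exposed from 2 hpf were recorded at 24-25 hpf in 1-min videos and detected by a KNIME workflow from grey-value variance. Betamethasone was tested as the dipropionate, diflorasone as the diacetate.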

COc1ccc(Cl)cc1C(=O)NCCc1ccc(S(=O)(=O)NC(=O)NC2CCCCC2)cc1 [Glibenclamide]
Conditions | spontaneous tail coiling frequency
3.16 µM | 1.79
3.2 µM | 0.98
6.3 µM | 1.48
6.33 µM | 1.79
12.65 µM | 0.8
12.7 µM | 1.41
25.3 µM | 1.69
50.6 µM | 1.97
50.61 µM | 1.66
